A short description of the data set: Phase 1 pharmacokinetic assessment, Cycle 1 serum concentrations. The class given is in vivo, human.

Where a SMILES comes first, the peptide text is derived from it. [ ]: non-standard residue; d: D form. The star is where a group is joined. Dolaproine = CO[C@@H]([C@@H]1CCCN1)[C@@H](C)C(=O)O; Dil = CC[C@H](C)[C@H](NC)[C@@H](CC(=O)O)OC; Doe = c1ccc(C[C@H](N*)c2nccs2)cc1; Aib = CC(C)(N)C(=O)O

Description: Pharmacokinetic assessments included quantifying the serum concentrations of T(kK183C+K290C)-vc0101 ADC (measured as conjugated payload), total antibody, and unconjugated payload using validated bioanalytical assays on blood samples collected before treatment and during the study. Specifically, total antibody concentrations were measured using ELISA method, T(kK183C+K290C)-vc0101 ADC concentrations were measured as conjugated payload using a hybrid LC-MS/MS method, and unconjugated payload concentrations will be measured using an LC-MS/MS method. For preliminary PK assessment, mean serum concentration-time profiles of T(kK183C+K290C)-vc0101 ADC were generated for each dose cohort; Noncompartmental PK parameters were estimated from Cycle 1 concentration-time data using nominal sampling time. For T(kK183C+K290C)-vc0101 ADC and total antibody, PK parameters including the maximum plasma concentration (Cmax), time to maximum plasma concentration (Tmax), and area under the plasma concentration versus time curve (AUCinf, AUCτ), clearance (CL), volume of distribution at steady state (Vss), terminal half-life (t1/2), and accumulation ratio (Rac) were calculated. For unconjugated payload, PK parameters including Cmax, Tmax, AUCinf, AUCτ, t1/2, and Rac, were calculated.

For `CC[C@H](C)[C@@H]([C@@H](CC(=O)N1CCC[C@H]1[C@H](OC)[C@@H](C)C(=O)N[C@@H](Cc1ccccc1)c1nccs1)OC)N(C)C(=O)[C@@H](NC(=O)C(C)(C)N)C(C)C` [unconjugated payload, 2-methylalanyl-N-[(3R,4S,5S)-3-methoxy-1-{(2S)-2-[(1R,2R)-1-methoxy-2-methyl-3-oxo-3-{[(1S)-2-phenyl-1-(1,3-thiazol-2-yl)ethyl]amino}propyl]pyrrolidin-1-yl}-5-methyl-1-oxoheptan-4-yl]-N-methyl-L-valinamide] (H-[Aib]V[Dil][Dolaproine]-Doe), the “exposure following IV administration of PF-06804103” value (0.15-5.0 mg/kg, Cycle 1) is “Dose-dependent increases”. Also, the “Serum concentrations compared with ADC” value (Cycle 1, after IV PF-06804103) is listed as “substantially lower than those of ADC”.
